Experimental data as given in patent US8461083B2, “Herbicidal compounds” (Syngenta Limited, priority 2008, dated 2013).

Key:
Solanum nigrum (SOLNI) [1] = experiment: Post-emergence herbicidal glasshouse test; assay type: in vivo; conditions: Solanum nigrum, 312 h, post-emergence (sprayed after 8 days cultivation), evaluated after 13 days, 100=total damage to plant, 0=no damage to plant, read-out: POST Application SOLNI, damage to plant
Summary of the method: (§1)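 Damage was rated visually 13 days after treatment on a 0–100 scale, 100 meaning total damage. Pot-grown plants received a 1000 g/ha spray in acetone/water (50:50) containing 0.5% Tween 20, either one day after sowing or after eight days of growth.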

Setaria faberi (SETFA) [2] = experiment: Post-emergence herbicidal glasshouse test; assay type: in vivo; conditions: Setaria faberi, 312 h, post-emergence (sprayed after 8 days cultivation), evaluated after 13 days, 100=total damage to plant, 0=no damage to plant, read-out: POST Application SETFA, damage to plant
Summary of the method: as §1

[3] = test system: Echinochloa crus-galli (ECHCG); experiment: Post-emergence herbicidal glasshouse test; assay type: in vivo; conditions: Echinochloa crus-galli, 312 h, post-emergence (sprayed after 8 days cultivation), evaluated after 13 days, 100=total damage to plant, 0=no damage to plant, read-out: POST Application ECHCG, damage to plant
Summary of the method: (§2)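 Glasshouse pots at 24/16 °C day/night, 14 h photoperiod and 65% humidity were treated once at 1000 g/ha, using 0.5% Tween 20 in acetone/water 50:50, before (1 d) or after (8 d) emergence. Phytotoxicity was scored 0–100 at 13 days.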

[4] = test system: Amaranthus retoflexus (AMARE); experiment: Post-emergence herbicidal glasshouse test; assay type: in vivo; conditions: Amaranthus retroflexus, 312 h, post-emergence (sprayed after 8 days cultivation), evaluated after 13 days, 100=total damage to plant, 0=no damage to plant, read-out: POST Application AMARE, damage to plant
Summary of the method: as §1

[5] = test system: Alopecurus myosuroides (ALOMY); experiment: Post-emergence herbicidal glasshouse test; assay type: in vivo; conditions: Alopecurus myosuroides, 312 h, post-emergence (sprayed after 8 days cultivation), evaluated after 13 days, 100=total damage to plant, 0=no damage to plant, read-out: POST Application ALOMY, damage to plant
Summary of the method: as §1

Solanum nigrum (SOLNI) [6] = experiment: Pre-emergence herbicidal glasshouse test; assay type: in vivo; conditions: Solanum nigrum, 312 h, pre-emergence (sprayed after one day cultivation), evaluated after 13 days, 100=total damage to plant, 0=no damage to plant, read-out: PRE Application SOLNI, damage to plant
Summary of the method: as §1

Setaria faberi (SETFA) [7] = experiment: Pre-emergence herbicidal glasshouse test; assay type: in vivo; conditions: Setaria faberi, 312 h, pre-emergence (sprayed after one day cultivation), evaluated after 13 days, 100=total damage to plant, 0=no damage to plant, read-out: PRE Application SETFA, damage to plant
Summary of the method: as §1

[8] = test system: Echinochloa crus-galli (ECHCG); experiment: Pre-emergence herbicidal glasshouse test; assay type: in vivo; conditions: Echinochloa crus-galli, 312 h, pre-emergence (sprayed after one day cultivation), evaluated after 13 days, 100=total damage to plant, 0=no damage to plant, read-out: PRE Application ECHCG, damage to plant
Summary of the method: as §2

[9] = test system: Alopecurus myosuroides (ALOMY); experiment: Pre-emergence herbicidal glasshouse test; assay type: in vivo; conditions: Alopecurus myosuroides, 312 h, pre-emergence (sprayed after one day cultivation), evaluated after 13 days, 100=total damage to plant, 0=no damage to plant, read-out: PRE Application ALOMY, damage to plant
Summary of the method: as §1

## COCC(F)(F)c1nc2nc(C)c(F)cc2cc1C(=O)C1C(=O)C2CCC(C2)C1=O (stereo not shown) [Compound 3.13, 3-[6-fluoro-2-(2-methoxy-1,1-difluoroethyl)-7-methyl [1,8]-naphthyridine-3-carbonyl]-bicyclo[3.2.1]octane-2,4-dione]
Solanum nigrum (SOLNI) [1]
  pest or weed control at 1000 g/ha: 70%
Setaria faberi (SETFA) [2]
  pest or weed control at 1000 g/ha: 80%
[3]
  pest or weed control at 1000 g/ha: 80%
[4]
  pest or weed control at 1000 g/ha: 70%
[5]
  pest or weed control at 1000 g/ha: 40%
other
  melting point: 177 to 180 °C
Solanum nigrum (SOLNI) [6]
  pest or weed control at 1000 g/ha: 80%
Setaria faberi (SETFA) [7]
  pest or weed control at 1000 g/ha: 80%
[8]
  pest or weed control at 1000 g/ha: 100%
[9]
  pest or weed control at 1000 g/ha: 10%
